Tests used:
AHR [1] = target: T1, AHR (Homo sapiens, UniProt P35869); test: In vitro assay 2: agonism in human cell line (transactivation assay)
T1 sequence (P35869 11-848): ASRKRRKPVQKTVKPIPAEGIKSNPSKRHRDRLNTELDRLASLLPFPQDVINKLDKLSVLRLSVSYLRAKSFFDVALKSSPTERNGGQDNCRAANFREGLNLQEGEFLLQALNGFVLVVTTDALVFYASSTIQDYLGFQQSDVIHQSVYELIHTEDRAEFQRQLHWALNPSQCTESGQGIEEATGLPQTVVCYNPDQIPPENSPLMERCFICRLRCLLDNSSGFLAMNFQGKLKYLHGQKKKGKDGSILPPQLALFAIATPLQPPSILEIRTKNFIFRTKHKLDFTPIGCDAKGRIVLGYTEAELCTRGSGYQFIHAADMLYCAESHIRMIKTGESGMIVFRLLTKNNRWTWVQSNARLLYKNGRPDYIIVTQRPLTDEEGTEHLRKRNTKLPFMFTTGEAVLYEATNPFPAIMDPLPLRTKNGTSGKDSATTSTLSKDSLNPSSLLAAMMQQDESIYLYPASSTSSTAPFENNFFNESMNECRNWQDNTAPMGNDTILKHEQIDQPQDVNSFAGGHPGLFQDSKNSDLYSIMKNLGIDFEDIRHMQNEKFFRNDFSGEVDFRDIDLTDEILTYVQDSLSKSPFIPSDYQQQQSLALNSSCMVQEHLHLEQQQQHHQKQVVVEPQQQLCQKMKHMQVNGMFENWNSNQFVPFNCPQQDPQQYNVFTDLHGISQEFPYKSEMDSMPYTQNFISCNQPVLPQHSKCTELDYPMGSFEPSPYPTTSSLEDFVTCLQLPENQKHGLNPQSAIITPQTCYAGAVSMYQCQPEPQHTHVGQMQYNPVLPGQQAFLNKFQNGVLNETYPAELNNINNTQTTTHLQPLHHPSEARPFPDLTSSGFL

AHR [2] = target: T1, AHR; test: In vitro assay 1: antagonism in human cell line (transactivation assay, kynurenic acid prestimulated); conditions: Assay 1: AHR-luc Hum Antagonism IC50 [M], 150 μM kynurenic acid, 20 hours, firefly luciferase
[3] = read-out: Assay 2: AHR-luc Hum Agonism IC50, no kynurenic acid, 20 hours, firefly luciferase
[4] = Assay 2: AHR-luc Hum Agonism IC50 [M], no kynurenic acid, 20 hours, firefly luciferase

For `O=C(NCC(O)C(F)(F)F)c1cc(-c2ccc(Cl)cc2)nn(-c2ccccc2)c1=O` (single isomer, unassigned) [Example 78, 6-(4-chlorophenyl)-3-oxo-2-phenyl-N-(3,3,3-trifluoro-2-hydroxypropyl)-2,3-dihydropyridazine-4-carboxamide], the IC50 (AHR [1]; [3]) was over 2e-05 M and the IC50 (AHR [2]) was 2.66e-07 M.
In the case of `O=C(N[C@@H]1CCCC[C@@H]1O)c1cc(-c2ccc(Cl)cc2)nn(-c2cccc(F)c2)c1=O` (single isomer, unassigned) [Example 105, 6-(4-Chlorophenyl)-2-(3-fluorophenyl)-N-(cis-2-hydroxycyclohexyl)-3-oxo-2,3-dihydropyridazine-4-carboxamide], the IC50 (AHR [1]; [3]) is reported as over 2e-05 M and the IC50 (AHR [2]) is reported as 1.51e-07 M.
Compound `COc1ccc(-c2cc(C(=O)N[C@@H]3CCCC[C@@H]3O)c(=O)n(-c3cccc(F)c3)n2)cc1` (single isomer, unassigned) [Example 108, 2-(3-Fluorophenyl)-N-(cis-2-hydroxycyclohexyl)-6-(4-methoxyphenyl)-3-oxo-2,3-dihydropyridazine-4-carboxamide] has an IC50 (AHR [1]; [3]) of over 2e-05 M and an IC50 (AHR [2]) of 2.4e-07 M.
Work on `O=C(N[C@H]1CCCC[C@@H]1O)c1cc(-c2ccc(Cl)cc2)nn(-c2cccc(F)c2)c1=O` (single isomer, unassigned) [Example 119, 6-(4-Chlorophenyl)-2-(3-fluorophenyl)-N-(trans-2-hydroxycyclohexyl)-3-oxo-2,3-dihydropyridazine-4-carboxamide] yielded an IC50 (AHR [1]; [3]) of over 2e-05 M and an IC50 (AHR [2]) of 4.51e-07 M.
`O=C(NCC(O)C(F)(F)F)c1cc(-c2ccc(OC(F)F)cc2)nn(-c2cccc(F)c2)c1=O` (single isomer, unassigned) [Example 121, 6-[4-(Difluoromethoxy)phenyl]-2-(3-fluorophenyl)-3-oxo-N-(3,3,3-trifluoro-2-hydroxypropyl)-2,3-dihydropyridazine-4-carboxamide] was tested, and the IC50 (AHR [1]; [4]) was over 2e-05 M and the IC50 (AHR [2]) was 3.42e-08 M.
For `O=C(NCC(O)C(F)(F)F)c1cc(-c2ccc(OC(F)F)cc2)nn(-c2cccc(F)c2)c1=O` (single isomer, unassigned) [Example 122, 6-[4-(Difluoromethoxy)phenyl]-2-(3-fluorophenyl)-3-oxo-N-(3,3,3-trifluoro-2-hydroxypropyl)-2,3-dihydropyridazine-4-carboxamide], the IC50 (AHR [1]; [3]) was over 2e-05 M and the IC50 (AHR [2]) was 1.38e-07 M.
`O=C(N[C@H]1CCC[C@@H]1O)c1cc(-c2ccc(Cl)cc2)nn(-c2cccc(F)c2)c1=O` (single isomer, unassigned) [Example 125, 6-(4-Chlorophenyl)-2-(3-fluorophenyl)-N-(trans-2-hydroxycyclopentyl)-3-oxo-2,3-dihydropyridazine-4-carboxamide] showed an IC50 (AHR [1]; [3]) of over 2e-05 M and an IC50 (AHR [2]) of 1.86e-07 M.
Work on `O=C(N[C@H]1COC[C@@H]1O)c1cc(-c2ccc(Cl)cc2)nn(-c2cccc(F)c2)c1=O` (single isomer, unassigned) [Example 136, 6-(4-Chlorophenyl)-2-(3-fluorophenyl)-N-(trans-4-hydroxytetrahydrofuran-3-yl)-3-oxo-2,3-dihydropyridazine-4-carboxamide] yielded an IC50 (AHR [1]; [3]) of over 2e-05 M and an IC50 (AHR [2]) of 1.43e-07 M.
Work on `CC(O)C(C)NC(=O)c1cc(-c2ccc(OC(F)F)cc2)nn(-c2cccc(F)c2)c1=O` (single isomer, unassigned) [Example 141, 6-[4-(Difluoromethoxy)phenyl]-2-(3-fluorophenyl)-N-(3-hydroxybutan-2-yl)-3-oxo-2,3-dihydropyridazine-4-carboxamide] yielded an IC50 (AHR [1]; [4]) of over 2e-05 M and an IC50 (AHR [2]) of 7.81e-08 M.
With `CC(O)C(C)NC(=O)c1cc(-c2ccc(OC(F)F)cc2)nn(-c2cccc(F)c2)c1=O` (single isomer, unassigned) [Example 142, 6-[4-(Difluoromethoxy)phenyl]-2-(3-fluorophenyl)-N-(3-hydroxybutan-2-yl)-3-oxo-2,3-dihydropyridazine-4-carboxamide] the IC50 (AHR [1]; [3]) was over 2e-05 M and the IC50 (AHR [2]) was 9.15e-07 M.
For `O=C(NC(CO)C1CCOC1)c1cc(-c2ccc(OC(F)F)cc2)nn(-c2cccc(F)c2)c1=O` (single isomer, unassigned) [Example 146, 6-[4-(Difluoromethoxy)phenyl]-2-(3-fluorophenyl)-N-{(2-hydroxy-1-tetrahydrofuran-3-yl)ethyl}-3-oxo-2,3-dihydropyridazine-4-carboxamide], the IC50 (AHR [1]; [3]) was over 2e-05 M and the IC50 (AHR [2]) was 2.94e-07 M.
Compound `O=C(NC(CO)C1CCOC1)c1cc(-c2ccc(OC(F)F)cc2)nn(-c2cccc(F)c2)c1=O` (single isomer, unassigned) [Example 147, 6-[4-(Difluoromethoxy)phenyl]-2-(3-fluorophenyl)-N-{(2-hydroxy-1-tetrahydrofuran-3-yl)ethyl}-3-oxo-2,3-dihydropyridazine-4-carboxamide] has an IC50 (AHR [1]; [3]) of over 2e-05 M and an IC50 (AHR [2]) of 4.66e-07 M.
For `O=C(NC(CO)C1CCOC1)c1cc(-c2ccc(OC(F)F)cc2)nn(-c2cccc(F)c2)c1=O` (single isomer, unassigned) [Example 148, 6-[4-(Difluoromethoxy)phenyl]-2-(3-fluorophenyl)-N-{(2-hydroxy-1-tetrahydrofuran-3-yl)ethyl}-3-oxo-2,3-dihydropyridazine-4-carboxamide], the IC50 (AHR [1]; [3]) was over 2e-05 M and the IC50 (AHR [2]) was 5.33e-07 M.
For `O=C(NC(CO)C1CCOCC1)c1cc(-c2ccc(Cl)cc2)nn(-c2cccc(F)c2)c1=O` (single isomer, unassigned) [Example 150, 6-(4-Chlorophenyl)-2-(3-fluorophenyl)-N-[2-hydroxy-1-(tetrahydro-2H-pyran-4-yl)ethyl]-3-oxo-2,3-dihydropyridazine-4-carboxamide], the IC50 (AHR [1]; [4]) was over 2e-05 M and the IC50 (AHR [2]) was 2.35e-07 M.
`O=C(NC(CO)C1CCOCC1)c1cc(-c2ccc(Cl)cc2)nn(-c2cccc(F)c2)c1=O` (single isomer, unassigned) [Example 151, 6-(4-Chlorophenyl)-2-(3-fluorophenyl)-N-[2-hydroxy-1-(tetrahydro-2H-pyran-4-yl)ethyl]-3-oxo-2,3-dihydropyridazine-4-carboxamide] gave an IC50 (AHR [1]; [3]) of over 2e-05 M and an IC50 (AHR [2]) of 1.24e-07 M.
Compound `O=C(NC(CO)C(F)(F)F)c1cc(-c2ccc(OC(F)(F)F)cc2)nn(-c2cccc(F)c2)c1=O` (single isomer, unassigned) [Example 171, 2-(3-Fluorophenyl)-3-oxo-N-(1,1,1-trifluoro-3-hydroxypropan-2-yl)-6-[4-(trifluoromethoxy)phenyl]-2,3-dihydropyridazine-4-carboxamide] has an IC50 (AHR [1]; [3]) of over 2e-05 M and an IC50 (AHR [2]) of 6.77e-07 M.
`CC(O)C(C)NC(=O)c1cc(-c2ccc(OC(F)(F)F)cc2)nn(-c2cccc(F)c2)c1=O` (single isomer, unassigned) [Example 180, 2-(3-Fluorophenyl)-N-(3-hydroxybutan-2-yl)-3-oxo-6-[4-(trifluoromethoxy)phenyl]-2,3-dihydropyridazine-4-carboxamide] was tested, and the IC50 (AHR [1]; [4]) was over 2e-05 M and the IC50 (AHR [2]) was 1.24e-07 M.
In the case of `CC(O)C(NC(=O)c1cc(-c2ccc(Cl)cc2)nn(-c2cccc(F)c2)c1=O)C(F)(F)F` (single isomer, unassigned) [Example 199, Isomer no. 2 of 6-(4-chlorophenyl)-2-(3-fluorophenyl)-3-oxo-N-(1,1,1-trifluoro-3-hydroxybutan-2-yl)-2,3-dihydropyridazine-4-carboxamide], the IC50 (AHR [1]; [3]) is reported as over 2e-05 M and the IC50 (AHR [2]) is reported as 5.84e-07 M.
Work on `CC(NC(=O)c1cc(-c2ccc(C(F)(F)F)cc2)nn(-c2cccc(F)c2)c1=O)C(O)C(F)(F)F` (single isomer, unassigned) [Example 269, Isomer no. 2 of 2-(3-fluorophenyl)-3-oxo-N-(4,4,4-trifluoro-3-hydroxybutan-2-yl)-6-[4-(trifluoromethyl)phenyl]-2,3-dihydropyridazine-4-carboxamide] yielded an IC50 (AHR [1]; [4]) of 3.85e-09 M and an IC50 (AHR [2]) of over 2e-05 M.
For `O=C(N[C@@H]1CCCC(F)(F)[C@H]1O)c1cc(-c2ccc(Cl)cc2)nn(-c2cccc(F)c2)c1=O` (single isomer, unassigned) [Example 276, 6-(4-Chlorophenyl)-N-[(trans)-3,3-difluoro-2-hydroxycyclohexyl]-2-(3-fluorophenyl)-3-oxo-2,3-dihydropyridazine-4-carboxamide], the IC50 (AHR [1]; [3]) was over 2e-05 M and the IC50 (AHR [2]) was 1.45e-07 M.
For `CC(C)(O)C(NC(=O)c1cc(-c2ccc(Cl)cc2)nn(-c2cccc(F)c2)c1=O)C(F)(F)F` (single isomer, unassigned) [Example 278, 6-(4-Chlorophenyl)-2-(3-fluorophenyl)-3-oxo-N-(1,1,1-trifluoro-3-hydroxy-3-methylbutan-2-yl)-2,3-dihydropyridazine-4-carboxamide], the IC50 (AHR [1]; [4]) was over 2e-05 M and the IC50 (AHR [2]) was 2.05e-07 M.
`O=C(NCC(O)C(F)(F)F)c1cc(-c2ccc(Cl)c(F)c2)nn(-c2cccc(F)c2)c1=O` (single isomer, unassigned) [Example 283, 6-(4-chloro-3-fluorophenyl)-2-(3-fluorophenyl)-3-oxo-N-(3,3,3-trifluoro-2-hydroxypropyl)-2,3-dihydropyridazine-4-carboxamide] showed an IC50 (AHR [1]; [4]) of over 2e-05 M and an IC50 (AHR [2]) of 1.91e-07 M.
